For one molecule, UPLC-ELSD product analysis results are on record in article PMC4791539, “Crystal structure of Anoxybacillus α-amylase provides insights into maltose binding of a new glycosyl hydrolase subclass” (Scientific Reports, 2016).

The experiment addresses T1, TASKA (truncated ASKA) (Anoxybacillus ayderensis, UniProt I1VWH9).
T1 construct: signal peptide (1-23) and predicted C-terminal transmembrane region (479-505) removed; 6xHis tags at N- and C-termini (pET-28a); E. coli BL21(DE3); monomer in asymmetric unit
T1 sequence (I1VWH9 24-478): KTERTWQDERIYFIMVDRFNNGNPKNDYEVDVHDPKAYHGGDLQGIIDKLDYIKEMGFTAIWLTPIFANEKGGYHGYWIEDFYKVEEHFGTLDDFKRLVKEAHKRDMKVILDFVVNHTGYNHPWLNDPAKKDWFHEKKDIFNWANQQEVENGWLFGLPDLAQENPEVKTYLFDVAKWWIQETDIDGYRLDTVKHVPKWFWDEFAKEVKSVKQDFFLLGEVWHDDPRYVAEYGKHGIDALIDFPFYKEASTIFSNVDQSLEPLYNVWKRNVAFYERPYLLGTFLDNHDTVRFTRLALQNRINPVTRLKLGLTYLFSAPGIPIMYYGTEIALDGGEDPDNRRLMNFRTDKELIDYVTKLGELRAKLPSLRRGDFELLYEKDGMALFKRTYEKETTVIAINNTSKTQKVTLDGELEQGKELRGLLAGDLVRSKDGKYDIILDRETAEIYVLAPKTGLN
Kind of experiment: UPLC-ELSD product analysis. The format is biochemical. As to conditions: hydrolysed to glucose and maltose; co-crystal (TASKA-T) shows only maltose.

In the case of `OC[C@H]1O[C@H](O[C@H]2[C@H](O)[C@@H](O)[C@@H](O[C@H]3[C@H](O)[C@@H](O)C(O)O[C@@H]3CO)O[C@@H]2CO)[C@H](O)[C@@H](O)[C@@H]1O` (stereo partly shown) [maltotriose], the UPLC-ELSD product analysis entry was “glucose and maltose were produced following the hydrolysis of maltotriose”.
